From patent US20240262842A1, “SMALL MOLECULE INHIBITORS OF KRAS G12C MUTANT” (Merck Sharp & Dohme LLC, priority 2021, published 2024)

Experiments:
MIA PaCa-2 cells = experiment: Growth inhibition activity on KRAS-G12C mutant cell line (CellTiter-Glo 3D); type: cell-based, human; details: Homo sapiens, MIA PaCa-2, 72 h, MIA PaCa-2, 3-day culture with compound; Table 3-1
Method in brief: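 MIA PaCa-2 cells in RPMI1640 with 10% FBS, U-bottom wells, cultured 1 day before compound (0.2% DMSO final), then 3 days at 37 °C, 5% CO2. Viability by CellTiter-Glo 3D luminescence; growth inhibition versus untreated wells gives IC50 (nM).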

[1] = molecular target: T1, interaction between GMPPNP-bound recombinant K-Ras4B G12C mutant protein and cRAF RAS-binding domain (cRAF-RBD) (Homo sapiens, UniProt P01116, G12C); experiment: Inhibitory activity on interaction between KRAS G12C and cRAF (Alpha technology); details: GMPPNP-bound KRAS G12C incubated with compound 25° C. 1 hour; Table 2-1; read-out: IC50
T1 construct: His-tag (N)
Method in brief: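 His-tagged K-Ras4B G12C (aa 1-169), GMPPNP-loaded, preincubated with compound 1 h at 25° C in pH 7.5 Tris buffer with MgCl2, TCEP, Tween 20. cRAF-RBD (aa 50-132) and Alpha reagents then added for 1.5 h; Alpha signal normalised to DMSO (0%) and GDP-bound KRAS (100%); IC50 from dose titration.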

T1 sequence (P01116 with tags, fused parts or gaps isoform P01116-2 G12C): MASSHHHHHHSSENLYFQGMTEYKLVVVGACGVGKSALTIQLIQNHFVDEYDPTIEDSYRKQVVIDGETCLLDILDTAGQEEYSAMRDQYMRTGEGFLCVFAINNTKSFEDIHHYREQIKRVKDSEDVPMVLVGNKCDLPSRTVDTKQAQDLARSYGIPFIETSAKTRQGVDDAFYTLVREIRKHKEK

Compound	IC50 (MIA PaCa-2 cells)	IC50 [1]
CN1CCc2cc(C(=O)c3cc(F)c(NC(=O)/C=C/CN[C@H]4CCOC4)c(F)c3)n3cccc(c23)-c2c(C(F)(F)F)cc3c(ncn3C3CC3)c21 [Example 166, (S,E)-N-(4-(9-cycloprop-yl-12-methyl-7-(trifluoro-methyl)-9,12,13,14-tetra-hydroimidazo[4″,5″:5′,6′]-benzo[1′,2′:2,3]azocino-[4,5,6-hi]indolizine-2-carbonyl)-2,6-difluoro-phenyl)-4-((tetrahydro-furan-3-yl)amino)but-2-enamide]	51.2 nM	33.7 nM
COC[C@@H]1CCN1C/C=C/C(=O)Nc1c(F)cc(C(=O)c2cc3c4c(cccn24)-c2c(C(F)(F)F)cc4c(ncn4C)c2OCC3)cc1F [Example 169, (S,E)-N-(2,6-difluoro-4-(9-methyl-7-(trifluoro-methyl)-13,14-dihydro-9H-imidazo[4″,5″:5′,6′]-benzo[1′,2′:2,3]oxocino-[4,5,6-hi]indolizine-2-carbonyl)phenyl)-4-(2-(methoxymethyl)azetidin-1-yl)but-2-enamide]	15 nM	59.6 nM
COCc1nc2c3c(c(OC)cc2n1C)-c1cccn2c(C(=O)c4cc(F)c(NC(=O)/C=C/CNC5(C)CC5)c(F)c4)cc(c12)CCN3C [Example 174, (E)-N-(2,6-difluoro-4-(7-methoxy-10-(methoxymethyl)-9,12-dimethyl-9,12,13,14-tetrahydroimidazo[4″,5″:5′,6′]benzo[1′,2′:2,3]azocino[4,5,6-hi]indolizine-2-carbonyl)phenyl)-4-((1-methylcyclopropyl)amino)but-2-enamide]	7.45 nM	7.41 nM
COCc1nc2c3c(c(C(F)(F)F)cc2n1C)-c1cccn2c(C(=O)c4cc(F)c(NC(=O)/C=C/CNC5(C)CC5)c(F)c4)nc(c12)CCN3C [Example 185, (E)-N-(2,6-difluoro-4-(9-(methoxymethyl)-8,11-dimethyl-6-(trifluorometh-yl)-8,11,12,13-tetrahydro-1,2a,8,10,11-pentaaza-cycloocta[1,2,3-cd:5,4-e′]diindene-2-carbonyl)-phenyl)-4-((1-methyl-cyclopropyl)amino)but-2-enamide]	75.7 nM	40.8 nM
Cc1cnc2c3c(c(C(F)(F)F)cn12)-c1cccn2c(C(=O)c4cc(F)c(NC(=O)/C=C/CNC5(C)COC5)c(F)c4)cc(c12)CCN3C [Example 187, (E)-N-(4-(10,13-dimethyl-7-(trifluoromethyl)-14,15-dihydro-13H-imidazo[1″,2″:1′,2′]pyrido[3′,4′:2,3]azocino[4,5,6-hi]indolizine-2-carbonyl)-2,6-difluorophenyl)-4-((3-methyloxetan-3-yl)amino)but-2-enamide]	39 nM	36.4 nM
Cn1cnc2c3c(c(C(F)(F)F)cc21)-c1cccn2c(C(=O)c4cc(F)c(NC(=O)/C=C/CN5C[C@@H]6C[C@H]5CO6)c(F)c4)cc(c12)CCO3 [Example 189, (E)-4-((1S,4S)-2-oxa-5-azabicyclo[2.2.1]heptan-5-yl)-N-(2,6-difluoro-4-(9-methyl-7-(trifluoro-methyl)-13,14-dihydro-9H-imidazo[4″,5″:5′,6′]-benzo[1′,2′:2,3]oxocino-[4,5,6-hi]indolizine-2-carbonyl)phenyl)but-2-enamide]	6.1 nM	15.2 nM
COc1cc(N2CCCC2=O)cc2c1-c1cccn3c(C(=O)c4cc(F)c(NC(=O)/C=C/CN[C@H]5CCOC5)c(F)c4)cc(c13)CCN2C [Example 191, (S,E)-N-(2,6-difluoro-4-(9-methoxy-5-methyl-7-(2-oxopyrrolidin-1-yl)-4,5-dihydro-3H-benzo-[2,3]azocino[4,5,6-hi]-indolizine-1-carbonyl)-phenyl)-4-((tetrahydro-furan-3-yl)amino)but-2-enamide]	167 nM	97.1 nM
Cn1cnc2c3c(c(C(F)(F)F)cc21)-c1cccn2c(C(=O)c4cc(F)c(NC(=O)/C=C/CN5CCC[C@](C)(O)C5)c(F)c4)cc(c12)CCO3 [Example 196, (S,E)-N-(2,6-difluoro-4-(9-methyl-7-(trifluoro-methyl)-13,14-dihydro-9H-imidazo[4″,5″:5′,6′]-benzo[1′,2′:2,3]oxocino-[4,5,6-hi]indolizine-2-carbonyl)phenyl)-4-(3-hydroxy-3-methylpiper-idin-1-yl)but-2-enamide]	31.5 nM	35.1 nM
Cn1cnc2c3c(c(C(F)(F)F)cc21)-c1cccn2c(C(=O)c4cc(F)c(NC(=O)/C=C/CN5C6CCC5COC6)c(F)c4)cc(c12)CCO3 [Example 197]	10.9 nM	11.7 nM
CN1CCc2cc(C(=O)c3cc(F)c(NC(=O)/C=C/CN4C[C@@H]5C[C@H]4CO5)c(F)c3)n3cccc(c23)-c2c(C(F)(F)F)cc3c(ncn3C)c21 [Example 208, (E)-4-((1S,4S)-2-oxa-5-azabicyclo[2.2.1]heptan-5-yl)-N-(4-(9,12-dimeth-yl-7-(trifluoromethyl)-9,12,13,14-tetrahydro-imidazo[4″,5″:5′,6′]benzo-[1′,2′:2,3]azocino[4,5,6-hi]indolizine-2-carbonyl)-2,6-difluorophenyl)but-2-enamide]	11.4 nM	35.4 nM

Continued by falling IC50 (MIA PaCa-2 cells), values first:

IC50 (MIA PaCa-2 cells)	IC50 [1]	Compound
69.5 nM	39.6 nM	Cn1cnc2c3c(c(C(F)(F)F)cc21)-c1cccn2c(C(=O)c4cc(F)c(NC(=O)/C=C/CN5CCCOCC5)c(F)c4)cc(c12)CCO3 [Example 193, (E)-N-(2,6-difluoro-4-(9-methyl-7-(trifluorometh-yl)-13,14-dihydro-9H-imidazo[4″,5″:5′,6′]benzo-[1′,2′:2,3]oxocino[4,5,6-hi]indolizine-2-carbonyl)-phenyl)-4-(1,4-oxazepan-4-yl)but-2-enamide]
24.3 nM	91.5 nM	CC(=O)NC[C@@H]1CCN1C/C=C/C(=O)Nc1c(F)cc(C(=O)c2cc3c4c(cccn24)-c2c(C(F)(F)F)cc4c(ncn4C)c2OCC3)cc1F [Example 192, (S,E)-4-(2-(acetamido-methyl)azetidin-1-yl)-N-(2,6-difluoro-4-(9-meth-yl-7-(trifluoromethyl)-13,14-dihydro-9H-imidazo[4″,5″:5′,6′]benzo-[1′,2′:2,3]oxocino[4,5,6-hi]indolizine-2-carbonyl)-phenyl)but-2-enamide]
23.3 nM	90.4 nM	Cn1cnc2c3c(c(C(F)(F)F)cc21)-c1cccn2c(C(=O)c4cc(F)c(NC(=O)/C=C/CN5CC[C@H]5CF)c(F)c4)cc(c12)CCO3 [Example 175, (S,E)-N-(2,6-difluoro-4-(9-methyl-7-(trifluoro-methyl)-13,14-dihydro-9H-imidazo[4″,5″:5′,6′]-benzo[1′,2′:2,3]oxocino-[4,5,6-hi]indolizine-2-carbonyl)phenyl)-4-(2-(fluoromethyl)azetidin-1-yl)but-2-enamide]
21.4 nM	57.1 nM	Cn1cnc2c3c(c(C(F)(F)F)cc21)-c1cccn2c(C(=O)c4cc(F)c(NC(=O)/C=C/CN5CC6(COC6)C5)c(F)c4)cc(c12)CCO3 [Example 198, (E)-N-(2,6-difluoro-4-(9-methyl-7-(trifluorometh-yl)-13,14-dihydro-9H-imidazo[4″,5″:5′,6′]benzo-[1′,2′:2,3]oxocino[4,5,6-hi]indolizine-2-carbonyl)-phenyl)-4-(2-oxa-6-azaspiro[3.3]heptan-6-yl)but-2-enamide]
19.3 nM	39.4 nM	Cn1cnc2c3c(c(C(F)(F)F)cc21)-c1cccn2c(C(=O)c4cc(F)c(NC(=O)/C=C/CN5CCC[C@@](C)(O)C5)c(F)c4)cc(c12)CCO3 [Example 195, (R,E)-N-(2,6-difluoro-4-(9-methyl-7-(trifluoro-meth-yl)-13,14-dihydro-9H-imidazo[4″,5″:5′,6′]-benzo[1′,2′:2,3]oxocino-[4,5,6-hi]indolizine-2-carbonyl)phenyl)-4-(3-hydroxy-3-methylpiper-idin-1-yl)but-2-enamide]
15.2 nM	22.4 nM	Cn1cnc2c3c(c(C(F)(F)F)cc21)-c1cccn2c(C(=O)c4cc(F)c(NC(=O)/C=C/CN5CC[C@H]5C(C)(C)O)c(F)c4)cc(c12)CCO3 [Example 162, (S,E)-N-(2,6-difluoro-4-(9-methyl-7-(trifluoro-methyl)-13,14-dihydro-9H-imidazo[4″,5″:5′,6′]-benzo[1′,2′:2,3]oxocino-[4,5,6-hi]indolizine-2-carbonyl)phenyl)-4-(2-(2-hydroxypropan-2-yl)-azetidin-1-yl)but-2-enamide]
9.08 nM	10.3 nM	Cn1cnc2c3c(c(C(F)(F)F)cc21)-c1cccn2c(C(=O)c4cc(F)c(NC(=O)/C=C/CN5C[C@H]6C[C@@H]5CO6)c(F)c4)cc(c12)CCO3 [Example 190, (E)-4-((1R,4R)-2-oxa-5-azabicyclo[2.2.1]heptan-5-yl)-N-(2,6-difluoro-4-(9-methyl-7-(trifluoro-methyl)-13,14-dihydro-9H-imidazo[4″,5″:5′,6′]-benzo[1′,2′:2,3]oxocino-[4,5,6-hi]indolizine-2-carbonyl)phenyl)but-2-enamide]
6.38 nM	10.3 nM	COc1cc2c(nc(C)n2C)c2c1-c1cccn3c(C(=O)c4cc(F)c(NC(=O)/C=C/CNC5(C)CC5)c(F)c4)cc(c13)CCO2 [Example 194]
5.44 nM	3.75 nM	Cn1cnc2c3c(c(C(F)(F)F)cc21)-c1cccn2c(C(=O)c4cc(F)c(NC(=O)/C=C/CN5CC[C@H]5CO)c(F)c4)cc(c12)CCO3 [Example 165, (S,E)-N-(2,6-difluoro-4-(9-methyl-7-(trifluoro-methyl)-13,14-dihydro-9H-imidazo[4″,5″:5′,6′]-benzo[1′,2′:2,3]oxocino-[4,5,6-hi]indolizine-2-carbonyl)phenyl)-4-(2-(hydroxymethyl)azetidin-1-yl)but-2-enamide]
